Key:
Test in all cases: normalized area under the dose-response curve (viability relative to DMSO control) (fraction); higher = less sensitive (more viable cells)
Conditions in all cases: exposure time not given
KMS11 (cancer type: MM) = system: KMS11 (cancer type: MM)
Procedure: (§1)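 25 myeloma and 15 non-Hodgkin lymphoma cell lines were exposed to each of 76 drugs as 7-point log dilutions (0.01 nM–10 µM) in duplicate. Viability was read with CellTiter-Glo and normalised to DMSO (0.1%) and staurosporine (10 µM) plate controls. Normalised AUC was calculated by the trapezoidal method relative to the negative control.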

[1] = system: OCI-MY5/CRBN (cancer type: MM)
Procedure: as §1

MM1.R (cancer type: MM) = system: MM1.R (cancer type: MM)
Procedure: as §1

KMS26 (cancer type: MM) = system: KMS26 (cancer type: MM)
Procedure: as §1

[2] = system: SR-786 (cancer type: TCL)
Procedure: as §1

EJM (cancer type: MM) = system: EJM (cancer type: MM)
Procedure: as §1

[3] = system: OCI-MY5/Vec (cancer type: MM)
Procedure: as §1

[4] = system: SU-DHL1 (cancer type: TCL)
Procedure: as §1

[5] = system: Karpas-299 (cancer type: TCL)
Procedure: as §1

[6] = system: OCI-LY3 (cancer type: DLBCL)
Procedure: as §1

My-La (cancer type: TCL) = system: My-La (cancer type: TCL)
Procedure: as §1

Se-Ax (cancer type: TCL) = system: Se-Ax (cancer type: TCL)
Procedure: as §1

[7] = system: OCI-MY7 (cancer type: MM)
Procedure: as §1

JJN3 (cancer type: MM) = system: JJN3 (cancer type: MM)
Procedure: as §1

XG2 (cancer type: MM) = system: XG2 (cancer type: MM)
Procedure: as §1

[8] = system: OCI-LY19 (cancer type: DLBCL)
Procedure: as §1

[9] = system: KMS28BM (cancer type: MM)
Procedure: as §1

[10] = system: KMS28PE (cancer type: MM)
Procedure: as §1

[11] = system: NCI-H929 (cancer type: MM)
Procedure: as §1

[12] = system: RPMI 8226 (cancer type: MM)
Procedure: as §1

[13] = system: SU-DHL2 (cancer type: DLBCL)
Procedure: as §1

FR4 (cancer type: MM) = system: FR4 (cancer type: MM)
Procedure: as §1

LP1 (cancer type: MM) = system: LP1 (cancer type: MM)
Procedure: as §1

[14] = system: OCI-MY5 (cancer type: MM)
Procedure: as §1

[15] = system: JeKo-1 (cancer type: Mantle)
Procedure: as §1

[16] = system: SU-DHL6 (cancer type: DLBCL)
Procedure: as §1

[17] = system: KMS12PE (cancer type: MM)
Procedure: as §1

U266 (cancer type: MM) = system: U266 (cancer type: MM)
Procedure: as §1

[18] = system: Mino (cancer type: Mantle)
Procedure: as §1

[19] = system: Granta-519 (cancer type: Mantle)
Procedure: as §1

[20] = system: HuT 78 (cancer type: TCL)
Procedure: as §1

[21] = system: OCI-LY1 (cancer type: DLBCL)
Procedure: as §1

AMO1 (cancer type: MM) = system: AMO1 (cancer type: MM)
Procedure: as §1

SKMM2 (cancer type: MM) = system: SKMM2 (cancer type: MM)
Procedure: as §1

L363 (cancer type: MM) = system: L363 (cancer type: MM)
Procedure: as §1

MM1.S (cancer type: MM) = system: MM1.S (cancer type: MM)
Procedure: as §1

KMS34 (cancer type: MM) = system: KMS34 (cancer type: MM)
Procedure: as §1

KMS18 (cancer type: MM) = system: KMS18 (cancer type: MM)
Procedure: as §1

[22] = system: JVM2 (cancer type: Mantle)
Procedure: as §1

OPM2 (cancer type: MM) = system: OPM2 (cancer type: MM)
Procedure: as §1

| Compound | normalized area under the dose-response curve (KMS11 (cancer type: MM)) | normalized area under the dose-response curve [1] | normalized area under the dose-response curve (MM1.R (cancer type: MM)) | normalized area under the dose-response curve (KMS26 (cancer type: MM)) | normalized area under the dose-response curve [2] | normalized area under the dose-response curve (EJM (cancer type: MM)) | normalized area under the dose-response curve [3] | normalized area under the dose-response curve [4] | normalized area under the dose-response curve [5] | normalized area under the dose-response curve [6] | normalized area under the dose-response curve (My-La (cancer type: TCL)) | normalized area under the dose-response curve (Se-Ax (cancer type: TCL)) | normalized area under the dose-response curve [7] | normalized area under the dose-response curve (JJN3 (cancer type: MM)) | normalized area under the dose-response curve (XG2 (cancer type: MM)) | normalized area under the dose-response curve [8] | normalized area under the dose-response curve [9] | normalized area under the dose-response curve [10] | normalized area under the dose-response curve [11] | normalized area under the dose-response curve [12] | normalized area under the dose-response curve [13] | normalized area under the dose-response curve (FR4 (cancer type: MM)) | normalized area under the dose-response curve (LP1 (cancer type: MM)) | normalized area under the dose-response curve [14] | normalized area under the dose-response curve [15] | normalized area under the dose-response curve [16] | normalized area under the dose-response curve [17] | normalized area under the dose-response curve (U266 (cancer type: MM)) | normalized area under the dose-response curve [18] | normalized area under the dose-response curve [19] | normalized area under the dose-response curve [20] | normalized area under the dose-response curve [21] | normalized area under the dose-response curve (AMO1 (cancer type: MM)) | normalized area under the dose-response curve (SKMM2 (cancer type: MM)) | normalized area under the dose-response curve (L363 (cancer type: MM)) | normalized area under the dose-response curve (MM1.S (cancer type: MM)) | normalized area under the dose-response curve (KMS34 (cancer type: MM)) | normalized area under the dose-response curve (KMS18 (cancer type: MM)) | normalized area under the dose-response curve [22] | normalized area under the dose-response curve (OPM2 (cancer type: MM)) |
| --- | --- | --- | --- | --- | --- | --- | --- | --- | --- | --- | --- | --- | --- | --- | --- | --- | --- | --- | --- | --- | --- | --- | --- | --- | --- | --- | --- | --- | --- | --- | --- | --- | --- | --- | --- | --- | --- | --- | --- | --- |
| Cc1noc2c1-c1ccccc1C(c1ccc(Cl)cc1)=N[C@H]2CC(N)=O [CPI0610] | 0.642 | 0.721 | 0.67 | 0.492 | 0.713 | 0.782 | 0.717 | 0.794 | 0.72 | 0.938 | 0.748 | 0.721 | 0.52 | 0.556 | 0.728 | 0.771 | 0.841 | 0.704 | 0.63 | 0.629 | 0.696 | 0.691 | 0.687 | 0.554 | 0.889 | 0.868 | 0.69 | 0.583 | 0.686 | 0.905 | 0.775 | 0.922 | 0.526 | 0.675 | 0.601 | 0.61 | 0.571 | 0.746 | 0.693 | 0.685 |
| COc1cc2nccc(Oc3ccc(NC(=O)C4(C(=O)Nc5ccc(F)cc5)CC4)cc3)c2cc1OC [Cabozantinib] | 0.628 | 0.858 | 0.59 | 0.94 | 0.964 | 0.756 | 0.729 | 0.895 | 0.918 | 0.865 | 0.94 | 0.721 | 0.82 | 0.706 | 0.734 | 0.867 | 0.793 | 0.645 | 0.61 | 0.719 | 0.917 | 0.743 | 0.803 | 0.605 | 0.852 | 0.91 | 0.72 | 0.672 | 0.951 | 0.863 | 0.762 | 0.956 | 0.715 | 0.798 | 0.762 | 0.59 | 0.68 | 0.789 | 0.63 | 0.631 |
| CC(C)C[C@H](NC(=O)[C@H](CCc1ccccc1)NC(=O)CN1CCOCC1)C(=O)N[C@@H](Cc1ccccc1)C(=O)N[C@@H](CC(C)C)C(=O)[C@@]1(C)CO1 [Carfilzomib] | 0.128 | 0.0124 | 0.07 | 0.0786 | 0.25 | 0.104 | 0.0171 | 0.157 | 0.25 | 0.0311 | 0.19 | 0.113 | 0.11 | 0.356 | 0.0918 | 0.0752 | 0.0754 | 0.11 | 0.12 | 0.285 | 0.0281 | 0.638 | 0.225 | 0.105 | 0.0922 | 0.387 | 0.18 | 0.177 | 0.0636 | 0.094 | 0.32 | 0.0418 | 0.0997 | 0.264 | 0.095 | 0.11 | 0.147 | 0.0656 | 0.0748 | 0.187 |
| Cc1cc(Nc2ncc(Cl)c(Nc3ccccc3S(=O)(=O)C(C)C)n2)c(OC(C)C)cc1C1CCNCC1 [Ceritinib] | 0.344 | 0.622 | 0.29 | 0.677 | 0.657 | 0.502 | 0.539 | 0.0824 | 0.61 | 0.813 | 0.828 | 0.442 | 0.63 | 0.281 | 0.372 | 0.85 | 0.276 | 0.161 | 0.42 | 0.303 | 0.926 | 0.403 | 0.365 | 0.261 | 0.885 | 0.877 | 0.54 | 0.413 | 0.837 | 0.962 | 0.534 | 0.966 | 0.355 | 0.348 | 0.352 | 0.32 | 0.0994 | 0.487 | 0.899 | 0.193 |

From the supplement of paper PMC7214452
